Measurements: EP0430991B1, “REAGENT FOR USE IN LD-1 ASSAY” (BOEHRINGER MANNHEIM CORPORATION, priority 1988, dated 1990)
Counter-ions that a name gives are not always drawn. Like-named read-outs stand apart in the source and are kept apart here.

Experiments:
[1] = biological target: lactate dehydrogenase isoenzyme LD-1, H(4) (Homo sapiens, UniProt P07195); experiment: biochemical; conditions: for LD-1 ISOENZYME REAGENT (Recovery): Lithium L-Lactate 90 mM, pH 9.6; for activity at 240000 µM: R1: guanadine thiocyanate 240 mM, Lithium L-Lactate 90mM, Tris 112.6 mM, pH 9.5, 37 degrees C
Experimental: (§1) A. Materials: • 1. Reagent I. contains Lithium L-Lactate (90mM), guanadine thiocyanate (240 mM), Tris buffer (112.6 mM) at pH 9.5. • 2. Reagent II. contains Na(2)SO(4) (40 mM) and NAD (53.76 mM). Reaction mixture is a combination of 2.0 ml of R-1, 0.5 ml of R-2 which has a final reaction pH of 8.9 • 3. LD isoenzymes. Pure LD-1, LD-2, LD-3 and LD-5 individual isoenzymes were obtained from Aalto of Escondido, CA. Patient serum samples were obtained from a local hospital. B. Procedures Using Automated Analyzer Tests were performed on a Boehringer Mannheim/Hitachi 705 analyzer. The analyzer was given the following parameters: Assay Code: Rate - 20-26 (equivalent to 84.62 seconds to 198.70 seconds) Sample Volume: 12 µl R1 Volume: 400 µl R2 Volume: 100 µl Wavelength 1: 376 nm Wavelength 2: 340 nm Temperature: 37 degrees C. Factor: -10470 C. Manual Procedure Instrument: Spectrophotometer Temperature: 37 degrees C. Wavelength: 340 nm 1. Zero spectrophotometer with distilled or deionized water (DI HOH) 2. Pipette the following reagents in a cuvette:
(§2) 3. Mix and equilibrate sample to 37 degrees C. 4. Pipette and add 0.5 ml of R2 into sample test tube. Mix and measure optical density change at 340 nm for about 6 minutes. Calculate A/min. from 2 to 4 minutes. This is A/min for the sample. 5. Repeat steps 2 to 4 for the blank using 0.060 ml DI HOH as sample. This is A/min. for the blank. 6. Calculate for U/L (U/L = units of LDH activity per liter) U/L = (A/min Sample - A/min blank) x 1000 x 2.56 6.22 x light path x 0.06 [formula] D. Protocol for the Electrophoretic Analysis • 1. About 630 to 1,000 µl of individual LD-1, LD-2, LD-3, LD-4, LD-5 and abnormal patient serum samples were used in the electrophoretic analysis. • 2. 12 µl sample was added to […] R1 and incubated for 4 minutes at 37 degrees C to inhibit LD-2 to LD-5 to achieve an inhibited sample. • 3. Another 12 µl sample was added to 400 ul of Tris buffer (112.6 mM, pH at 8.9-9.0) and incubated for 4 minutes at 37 degrees C to achieve a control sample. • 4. Both the inhibited and control samples were applied to the Beckman Paragon Gel and the electrophoresis was run according to the Beckman procedure specified for the gel using a Beckman Paragon Electrophoresis instrument from Beckman Instrument. E. Method for Comparison Sixty-eight patient samples with LD-1 activity from 30 to 800 U/L were tested to compare the selectivity of R1 with the immunochemical separation method Roche's Isomune LD-1 reagent was employed for the immunochemical separation. F. Experimental Results 1. LD isoenzymes were tested using the Automated Analyzer procedure described above. […] LD-1 isoenzyme was tested at several concentrations. […]
(§3) A. Materials • 1. Reagent I: contains Lithium L-Lactate (90 mM), guanidine HCl (240 mM), sodium thiocyanate (240 mM) Tris buffer (119 mM) and Na(2)Co(3) (12.5 mM) at pH 9.6. • 2. Reagent II: contains Na(2)SO(4) (40 mM) and NAD (53.76 mM). Reaction mixture is a combination of 2.0 ml of R-1, 0.5 ml of R-2 which has final reaction pH at 8.9. • 3. LD isoenzymes: Same as described in Example 1. B. Procedures using Automated Analyzer Same as described in Example 1. C. Manual Procedure Same as described in Example 1. […]
(§4) A. Materials • 1. Reagent I: contains Lithium L-Lactate (90 mM), guanidine-HCL Na(2)Co(3) (12.5mM), Tris buffer (119 mM) at pH 9.6. • 2. Reagent II: contains Na(2)SO(4) (40 mM) and NAD (53.76 Mm). Reaction mixture is a combination of 2.0 ml of R-1, 0.5 ml of R-2 which has final reaction reaction pH at 8.9. • 3. LD isoenzymes: pure LD-1, LD-2, LD-3 and LD-5 individual isoenzymes are obtained from Aalto, Escondido, CA. Patient serum samples are obtained from a local hospital. B. Procedures using Automated Analyzer Same as described in Example 1. C. Manual Procedure Same as described in Example 1. […] Table
(§5) A. Materials • 1. Reagent I: contains Lithium L-Lactate (90 mM), NaSCN (240 mM) Na(2)Co(3) (12.5 mM), Tris buffer (119 mM) at pH 9.6. • 2.

[2] = biological target: T1, lactate dehydrogenase isoenzyme LD-3, H(2)M(2) (Homo sapiens, UniProt P00338+P07195); experiment: LD isoenzyme inactivation, automated analyzer rate assay (lactate/NAD, 340 nm); type: biochemical; conditions: Lithium L-Lactate 90 mM, pH 9.6
T1 construct: purchased Aalto, Escondido, CA
Experimental: as §1, §2, §3, §4, §5

[3] = biological target: lactate dehydrogenase isoenzyme LD-5, M(4) (Homo sapiens, UniProt P00338); experiment: as above; type: biochemical; conditions: for LD-1 ISOENZYME REAGENT (Recovery): Lithium L-Lactate 90 mM, pH 9.6
Experimental: as §1, §2, §3, §4, §5

[4] = biological target: T2, lactate dehydrogenase isoenzyme LD-2, H(3)M (Homo sapiens, UniProt P00338+P07195); experiment: as above; type: biochemical; conditions: for LD-1 ISOENZYME REAGENT (Recovery): Lithium L-Lactate 90 mM, pH 9.6
T2 construct: purchased Aalto, Escondido, CA
Experimental: as §1, §2, §3, §4, §5

[5] = test system: LD-2,3,4,5 (sample contains LD(2), LD(3), LD(4), and LD(5) isoenzymes with 43% of LD(4)); experiment: as above; type: biochemical, human; conditions: Lithium L-Lactate 90 mM, pH 9.6
Experimental: A. Materials: • 1. […] LD isoenzymes. […] Patient serum samples were obtained from a local hospital. […] Factor: -10470 C. Manual Procedure Instrument: Spectrophotometer Temperature: 37 degrees C. Wavelength: 340 nm 1. […] Pipette the following reagents in a cuvette:
3. Mix and equilibrate sample to 37 degrees C. 4. […] Calculate A/min. from 2 to 4 minutes. This is A/min for the sample. 5. […] This is A/min. for the blank. 6. […] F. Experimental Results 1. […] LD-1 isoenzyme was tested at several concentrations. […]
A. Materials • 1. […] LD isoenzymes: Same as described in Example 1. […] C. Manual Procedure Same as described in Example 1. […]
A. Materials • 1. […] Patient serum samples are obtained from a local hospital. […] C. Manual Procedure Same as described in Example 1. […] Table

[6] = biological target: lactate dehydrogenase isoenzyme LD-4, HM(3) (Homo sapiens, UniProt P00338+P07195); experiment: as above; type: biochemical; conditions: R1: guanadine thiocyanate 240 mM, Lithium L-Lactate 90mM, Tris 112.6 mM, pH 9.5; 37 degrees C; read-out: Activity After R1 Treatment (% of Total LDH Reagent)
Experimental: as §1
3. Mix and equilibrate sample to 37 degrees C. 4. Pipette and add 0.5 ml of R2 into sample test tube. Mix and measure optical density change at 340 nm for about 6 minutes. Calculate A/min. from 2 to 4 minutes. This is A/min for the sample. 5. Repeat steps 2 to 4 for the blank using 0.060 ml DI HOH as sample. This is A/min. for the blank. 6. […]

[7] = Reagent I: guanidine-HCL (concentration not given), no thiocyanate
[8] = R1: guanadine thiocyanate 240 mM, Lithium L-Lactate 90mM, Tris 112.6 mM, pH 9.5, 37 degrees C, read-out: Activity After R1 Treatment (% of Total LDH Reagent)
[9] = Reagent I: NaSCN 240 mM, no guanidine

Compound: N=C(N)N [GUANIDINE HCL, guanidine HCl]
- LD-1 ISOENZYME REAGENT (Recovery) ([1]; LD-1 sample 1X, Reagent I: guanidine-HCL (concentration not given), no thiocyanate): 202 (110 %)
- LD-1 ISOENZYME REAGENT (Recovery) ([1]; LD-1 sample 2X, Reagent I: guanidine-HCL (concentration not given), no thiocyanate): 394 (107 %)
- LD-1 ISOENZYME REAGENT (Recovery) ([1]; LD-1 sample 4X, Reagent I: guanidine-HCL (concentration not given), no thiocyanate): 759 (107 %)
- LD-1 ISOENZYME REAGENT (Recovery) ([1]; LD-1 sample 6X, Reagent I: guanidine-HCL (concentration not given), no thiocyanate): 1123 (106 %)
- LD-1 ISOENZYME REAGENT (Recovery) [2, 7]: 1323 (102 %)
- LD-1 ISOENZYME REAGENT (Recovery) [3, 7]: 159 ( 9.50%)
- LD-1 ISOENZYME REAGENT (Recovery) [4, 7]: 826 (106 %)
- LD-1 ISOENZYME REAGENT (Recovery) [5, 7]: 1102 ( 81.2 %)

Compound: N=C(N)N [guanadine thiocyanate]
- activity at 240000 µM ([1]; pH 9.5, read-out: Activity After R1 Treatment (% of Total LDH Reagent), LD-1 sample 1x): 98%
- activity at 240000 µM ([1]; pH 9.5, read-out: Activity After R1 Treatment (% of Total LDH Reagent), LD-1 sample 2x): 100%
- activity at 240000 µM ([1]; pH 9.5, read-out: Activity After R1 Treatment (% of Total LDH Reagent), LD-1 sample 4x): 100%
- activity at 240000 µM ([1]; pH 9.5, read-out: Activity After R1 Treatment (% of Total LDH Reagent), LD-1 sample 6x): 102%
- activity at 240000 µM [3, 8]: 0%
- activity at 240000 µM [4, 8]: 1.1%
- activity at 240000 µM [6]: 0%

Compound: sodium thiocyanate [NaSCN]
- LD-1 ISOENZYME REAGENT (Recovery) ([1]; LD-1 sample 1X, Reagent I: NaSCN 240 mM, no guanidine): 252 (138 %)
- LD-1 ISOENZYME REAGENT (Recovery) ([1]; LD-1 sample 2X, Reagent I: NaSCN 240 mM, no guanidine): 499 (136 %)
- LD-1 ISOENZYME REAGENT (Recovery) ([1]; LD-1 sample 4X, Reagent I: NaSCN 240 mM, no guanidine): 964 (134 %)
- LD-1 ISOENZYME REAGENT (Recovery) ([1]; LD-1 sample 6X, Reagent I: NaSCN 240 mM, no guanidine): 1421 (134 %)
- LD-1 ISOENZYME REAGENT (Recovery) [2, 9]: 1093 ( 85 %)
- LD-1 ISOENZYME REAGENT (Recovery) [3, 9]: 44 ( 2.6%)
- LD-1 ISOENZYME REAGENT (Recovery) [4, 9]: 905 (116 %)
- LD-1 ISOENZYME REAGENT (Recovery) [5, 9]: 725 ( 53 %)
